Blank lines part the entries; values can stand above or below the molecule they belong to.
How the values were obtained:
[1] = Comparative boiling points; type: physicochemical
Excerpt: The unexpectedly low boiling points of compounds of the present invention render the compounds useful in processes involving temperature-sensitive substrates such as plastics. (For example, in vapor-phase cleaning, a substrate is rinsed in the condensing vapor of a boiling fluid, and in condensation heating, a substrate is heated by immersion in a boiling fluid.) In such applications, a lower-boiling fluid is preferred so as to avoid damage to the substrate. While it is known that boiling points can be reduced by selection of a compound having fewer carbon atoms, this may result in a boiling point reduction of 25° C. or more, in addition to adversely affecting other properties such as solvency.

[2] = Fire extinguishing agent evaluation, NFPA 2001 standard, modified cup burner; details: cup burner modified to handle liquid compounds
Description: Omega-hydrofluoroalkyl ether compounds of this invention were evaluated as fire extinguishing agents using the National Fire Protection Association 2001 Fire Protection Standard, with a cup burner modified to handle liquid compounds. The results, shown below in Table D, indicate that the compounds could be effective agents for fire extinguishing, explosion suppression, and as flammable atmosphere inerting agents.

[3] = Rinse agent in co-solvent cleaning of oil-contaminated aluminum coupon; details: 50° C., about 60 seconds methyl decanoate then about 60 seconds rinse agent, aluminum coupon with light hydrocarbon oil
Description: A sample of this compound was also evaluated for use as a rinse agent in co-solvent cleaning applications. (Such cleaning applications are taught, for example, in International Patent Publication No. WO 92/22678 (Petroferm Inc.). Organic esters such as methyl decanoate have found utility as solvating agents in two-phase cleaning applications using perfluorohexane as the carrier liquid and rinse agent.) Methyl decanoate and C4F9OC2F4H were placed in separate containers and heated to 50° C. in an ultrasonic bath. A 50 mm×25 mm×1.5 mm aluminum coupon was contaminated with 0.0831 g of a light hydrocarbon oil. The contaminated coupon was first immersed in the methyl decanoate for about 60 seconds and then immersed in the C4F9OC2F4H for about 60 seconds. The C4F9OC2F4H rinsed 100 percent (as determined by weight difference) of the oil and the methyl decanoate from the coupon.

[4] = Spot-free drying: water displacement from glass and stainless steel coupons; details: 0.2% by weight C4F9OC2F4OCF2CONHC2H4OH dissolved in the ether, 45° C., ultrasonic agitation
Description: A sample of the compound was also evaluated for use in spot-free drying applications such as taught in U.S. Pat. No. 5,125,978 (Flynn et al.). A water displacement composition was prepared by dissolving 0.2% by weight of C4F9OC2F4OCF2CONHC2H4OH in C4F9—O—C2F4H. The solution was heated to 45° C. in an ultrasonic bath. Using the procedure described in U.S. Pat. No. 5,125,978, test coupons of glass and stainless steel were wetted with water and subsequently immersed into this solution with ultrasonic agitation. All water was displaced within 60 seconds.

[5] = Solubilities of selected hydrocarbon solvents in the ether hydride (precision cleaning); type: physicochemical
Description: A sample of this compound was evaluated for use in precision cleaning applications by measuring the solubilities of selected hydrocarbon solvents in the sample.

Boiling Point [1]: 148 °C
SMILES: FC(F)C(F)(F)OC(F)(F)C(F)(F)C(F)(F)C(F)(F)C(F)(F)C(F)(F)C(F)(F)C(F)(F)F [C8F17OC2F4H, C8F17—O—C2F4H]

Boiling Point [1]: 149 °C
SMILES: FC(F)C(F)(F)C(F)(F)C(F)(F)OC(F)(F)C(F)(F)C(F)(F)C(F)(F)C(F)(F)C(F)(F)F [C6F13OC4F8H, C6F13—O—C4F8—H]

Boiling Point [1]: 154 °C
SMILES: FC(F)C(F)(F)C(F)(F)C(F)(F)C(F)(F)C(F)(F)C(F)(F)C(F)(F)C(F)(F)C(F)(F)F [C9F19CF2H, reference compound]

Boiling Point [1]: 155 °C
SMILES: FC(F)OC(F)(F)C(F)(F)C(F)(F)C(F)(F)C(F)(F)C(F)(F)C(F)(F)C(F)(F)C(F)(F)F [C9F19OCF2H]

Boiling Point [1]: 139 °C
SMILES: FC(F)OC(F)(F)C(F)(F)C(F)(F)C(F)(F)C(F)(F)C(F)(F)C(F)(F)C(F)(F)F [C8F17OCF2H, C8F17—O—CF2H]

SMILES: FC(F)C(F)(F)C(F)(F)OC(F)(F)C(F)(F)C(F)F [HC3F6OC3F6H]
Extinguishment concentration [2]: 5.7 vol. %

Time for all water to be displaced [4]: ≤ 60 s
Solubility of chloroform in the ether hydride ([5]; Chloroform): 45 % by weight
Solubility of ethylene glycol in the ether hydride ([5]; Ethylene glycol): less than 15 % by weight
Solubility of hydrocarbon solvent in the ether hydride ([5]; hexane, heptane, toluene, acetone, 2-butanone, 4-methyl-2-pentanone, ethyl acetate, methanol, ethanol, isopropanol, dimethyl formamide, trans-1,2-dichloroethylene, isopropyl ether): up to 50 % by weight
Solubility of light hydrocarbon oil in the ether hydride ([5]; light hydrocarbon oil): less than 0.05 % by weight
Solubility of o-xylene in the ether hydride ([5]; o-Xylene): 19 % by weight
SMILES: FC(F)C(F)(F)OC(F)(F)C(F)(F)C(F)(F)C(F)(F)F [C4F9OC2F4H, C4F9—O—C2F4H]
Oil and methyl decanoate rinsed from the coupon (by weight difference) [3]: 100%
Extinguishment concentration [2]: 5.6 vol. %

SMILES: FC(F)(F)C(F)(F)C(F)(F)C(F)(F)C(F)(F)C(F)(F)F [perfluorohexane, reference compound]
Oil and methyl decanoate rinsed from the coupon (by weight difference) [3]: 98.5%

Boiling Point [1]: 131 °C
SMILES: FC(F)C(F)(F)OC(F)(F)C(F)(F)C(F)(F)C(F)(F)C(F)(F)C(F)(F)C(F)(F)F [C7F15OC2F4H, C7F15—O—C2F4H]

Boiling Point [1]: 150 °C
SMILES: FC(F)C(F)(F)C(F)(F)C(F)(F)C(F)(F)OC(F)(F)C(F)(F)C(F)(F)C(F)(F)C(F)(F)F [C5F11OC5F10H, C5F11—O—(CF2)5H]

Boiling Point [1]: 136 °C
SMILES: FC(F)C(F)(F)C(F)(F)C(F)(F)C(F)(F)C(F)(F)C(F)(F)C(F)(F)C(F)(F)F [C8F17CF2H, reference compound]
